Test results as given in patent EP0564356A1, “4-phenylaminomethylimidazole derivatives, process for their preparation, angiotensin II receptor antagonists and their application in therapy” (FOURNIER INDUSTRIE ET SANTE, priority 1992, dated 1993).

Target: T1, récepteur vasculaire de l'angiotensine II (Oryctolagus cuniculus, UniProt P34976)
T1 construct: réponse contractile induite par l'angiotensine II dans des anneaux isolés d'aorte de lapin; from tissue; host or cells: isolated rabbit aortic rings
T1 sequence (P34976 1-359): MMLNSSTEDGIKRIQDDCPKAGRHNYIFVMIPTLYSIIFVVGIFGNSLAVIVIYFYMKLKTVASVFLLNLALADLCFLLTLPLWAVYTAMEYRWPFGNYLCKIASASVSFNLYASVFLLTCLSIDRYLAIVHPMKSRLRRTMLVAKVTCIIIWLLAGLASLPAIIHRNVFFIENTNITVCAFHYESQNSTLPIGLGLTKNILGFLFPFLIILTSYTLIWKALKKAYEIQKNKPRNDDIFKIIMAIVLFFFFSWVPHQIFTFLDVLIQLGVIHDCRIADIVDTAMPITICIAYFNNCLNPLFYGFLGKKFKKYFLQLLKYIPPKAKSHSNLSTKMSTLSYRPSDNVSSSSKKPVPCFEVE
Assay: Antagonism of the angiotensin II-induced contractile response in isolated rabbit aortic rings
Parameters: species or system lapin
Conditions: contraction by angiotensine II 3.10⁻⁹ M, test product preincubated 15 minutes, 37°C
Method: L'activité des composés selon l'invention comme antagonistes du récepteur vasculaire de l'angiotensine II a été évaluée par leur efficacité à antagoniser la réponse contractile induite par l'angiotensine II dans des anneaux isolés d'aorte de lapin. Les anneaux sont suspendus dans un bain de Krebs-Henseleit maintenu à 37°C et aéré par un mélange O₂/CO₂ (95/5 , v/v) puis étirés à une tension de repos de 2 g. Après une heure de repos, on provoque une contraction par l'angiotensine II (3.10⁻⁹ M) en présence du produit à tester préincubé pendant 15 minutes. La concentration (exprimée en nanomole) de produit à tester produisant une inhibition de 50 % de la réponse contractile (IC₅₀) est calculée à partir de la courbe concentration-réponse . Les résultats obtenus avec un certain nombre de composés selon l'invention sont regroupés dans le tableau VIII.

Structure (SMILES) | IC50 [nM]
CCCCc1ncc(CNc2ccccc2C(=O)OCC(=O)N(CCC)CCC)n1Cc1ccc(C(=O)O)cc1 [compound 134] | 35
CCCCNC(=O)c1ccccc1NCc1cnc(CCCC)n1Cc1ccc(C(=O)O)cc1 [compound 210] | 84
CCCCc1ncc(CNc2ccccc2C(=O)O)n1Cc1ccc(C(=O)NS(C)(=O)=O)cc1 [compound 205] | 5.5
CCCCc1nc(Cl)c(CNc2cc3ccccc3cc2C(=O)O)n1Cc1ccc(C(=O)O)cc1 [compound 47] | 71.3
CCCCc1ncc(Cn2c(C(=O)O)cc3ccccc32)n1Cc1ccc(C(=O)O)cc1 [compound 33] | 7.1
CCCCc1ncc(CNc2ccccc2C(=O)O)n1Cc1ccc(C(=O)NS(=O)(=O)c2ccc(OC)cc2)cc1 [compound 204] | 9.5
CCCCc1nc(I)c(CNc2ccccc2C(=O)O)n1Cc1ccc(C(=O)O)cc1 [compound 44] | 5.3
CCCCc1ncc(CNc2cc([N+](=O)[O-])ccc2C(=O)O)n1Cc1ccc(C(=O)O)cc1 [compound 35] | 1.2
CCCCc1ncc(CNc2cc(N=[N+]=[N-])ccc2C(=O)O)n1Cc1ccc(C(=O)O)cc1 [compound 226] | 6
CCCCc1nc(Cl)c(CNc2ccccc2C(=O)O)n1Cc1ccc(C(=O)O)cc1Cl [compound 41] | 5.1
CCCCc1ncc(CNc2ccccc2C(N)=O)n1Cc1ccc(C(=O)O)cc1 [compound 209] | 70
CCCCc1ncc(CNc2ccccc2C(=O)OCC(=O)N(CC)CC)n1Cc1ccc(C(=O)OCC(=O)N(CC)CC)cc1 [exemple 68, acide 2-[[[2-butyl-1-[(4-((((diéthylamino)carbonyl)méthoxy)carbonyl)phényl)méthyl]-1H-imidazol-5-yl]méthyl]amino]-benzoïque, ((diéthylamino)carbonyl)méthyl ester] | 30
CCCCc1nc(Cl)c(CNc2ccccc2C(=O)O)n1Cc1ccc(-c2nnn[nH]2)cc1 [compound 51] | 10.8
CCCCc1nc(Cl)c(CNc2c(Cl)cc(Cl)cc2C(=O)O)n1Cc1ccc(C(=O)O)cc1 [compound 39] | 106
CCCCc1ncc(CNc2ccccc2C(=O)O)n1Cc1ccc(C(=O)OCC2CC2)cc1 [compound 178] | 67
CCCCc1ncc(CNc2ccccc2C(=O)O)n1Cc1ccc(C(=O)NS(=O)(=O)c2cccc(Cl)c2)cc1 [compound 201] | 10
CCCCc1nc(Cl)c(CN(C(C)=O)c2ccccc2C(=O)O)n1Cc1ccc(C(=O)O)cc1 [compound 55] | 69.1
CCCCc1ncc(CNc2ccccc2C(=O)O)n1Cc1ccc(C(=O)NS(=O)(=O)c2ccccc2N=[N+]=[N-])cc1 [compound 228] | 2

Structure (SMILES) | IC50 [nM]
CCCCc1ncc(CNc2ccccc2C(=O)OC(C)OC(=O)C2CCCCC2)n1Cc1ccc(C(=O)O)cc1 (centres unmarked) [compound 145] | 40
CCCCCOC(=O)c1ccccc1NCc1cnc(CCCC)n1Cc1ccc(C(=O)O)cc1 [compound 170] | 80
CCCCc1ncc(CNc2ccccc2C(=O)OCOC(=O)CCC)n1Cc1ccc(C(=O)NS(=O)(=O)c2ccccc2C)cc1 [compound 187] | 7
CCCCc1ncc(CNc2ccccc2C(=O)O)n1Cc1ccc(C(=O)NS(=O)(=O)c2ccccc2)cc1 [compound 203] | 4.4
CCCCc1nc(Cl)c(CNc2ccc(C)cc2C(=O)O)n1Cc1ccc(C(=O)O)cc1 [compound 45] | 6.7
CCCCc1nc(Cl)c(CNc2ccccc2-c2nnn[nH]2)n1Cc1ccc(C(=O)O)cc1 [compound 52] | 40.2
CCCCc1ncc(CNc2ccccc2C(=O)O)n1Cc1ccc(C(=O)NS(=O)(=O)c2ccc(Cl)cc2)cc1 [compound 202] | 14.7
CCCCc1nc(Cl)c(CNc2c(C(=O)O)cc(OC)c(OC)c2OC)n1Cc1ccc(C(=O)O)cc1 [compound 40] | 57.6
CCCCc1nc(Cl)c(CNc2ccccc2C(=O)O)n1Cc1ccc(C(=O)O)cc1 [compound 50] | 5.7
CCCc1nc(Cl)c(CNc2ccccc2C(=O)O)n1Cc1ccc(C(=O)O)cc1 [compound 42] | 5.1
CCCCOC(=O)c1ccccc1NCc1cnc(CCCC)n1Cc1ccc(C(=O)O)cc1 [compound 166] | 15
CCCCc1nc(C(F)(F)F)c(CNc2ccccc2C(=O)O)n1Cc1ccc(C(=O)O)cc1 [compound 43] | 6.3
CCCCc1ncc(CNc2ccccc2C(=O)OCC(=O)N(CCC)CCC)n1Cc1ccc(C(=O)OCC(=O)N(CCC)CCC)cc1 [compound 181] | 80
CCCCc1ncc(CNc2ccccc2C(=O)Oc2ccccc2)n1Cc1ccc(C(=O)O)cc1 [compound 157] | 54
CCCCc1nc(Cl)c(CNc2cc(Cl)ccc2C(=O)O)n1Cc1ccc(C(=O)O)cc1 [compound 48] | 5.3
CCCCc1ncc(CNc2ccccc2C(=O)OCC2COC(C)(C)O2)n1Cc1ccc(C(=O)O)cc1 (centres unmarked) [exemple 26, acide 2-[[[2-butyl-1-[(4-carboxyphényl)méthyl]-1H-imidazol-5-yl]méthyl]amino]-benzoïque, 2,2-diméthyl-1,3-dioxolane-4-yl-méthyl ester] | 100
CCCCc1ncc(CNc2ccccc2C(=O)O)n1Cc1ccc(C(=O)O)cc1 [exemple 32, acide 2-[[[2-butyl-1-[(4-carboxyphényl)méthyl]-1H-imidazol-5-yl]méthyl]amino]-benzoïque] | 3.6

Further compounds by falling IC50, results first:

IC50 [nM] | Structure (SMILES)
90 | CCCCc1ncc(CNc2ccccc2C(=O)OCC(=O)N(CC)CC)n1Cc1ccc(C(=O)OC)cc1 [compound 76]
82 | CCCCc1ncc(CNc2ccccc2C(=O)OCCc2ccccc2)n1Cc1ccc(C(=O)O)cc1 [compound 156]
80 | CCCCc1ncc(CNc2ccccc2C(=O)O)n1Cc1ccc(C(=O)OCC)cc1 [compound 174]
80 | CCCCc1ncc(CNc2ccccc2C(=O)OCC(O)CO)n1Cc1ccc(C(=O)O)cc1 (centres unmarked) [exemple 28, acide 2-[[[2-butyl-1-[(4-carboxyphényl)méthyl]-1H-imidazol-5-yl]méthyl]amino]-benzoïque, 2,3-dihydroxy-propyl ester]
75 | CCCCc1ncc(CNc2ccccc2C(=O)OCCOC)n1Cc1ccc(C(=O)O)cc1 [compound 158]
64 | CCCCc1ncc(CNc2ccccc2C(=O)OCCC(C)C)n1Cc1ccc(C(=O)O)cc1 [compound 161]
50 | CCCCc1ncc(CNc2ccccc2C(=O)OCC2CC2)n1Cc1ccc(C(=O)O)cc1 [compound 163]
46 | CCCc1ncc(CNc2cc([N+](=O)[O-])ccc2C(=O)O)n1Cc1ccc(C(=O)O)cc1 [compound 212]
40 | CCCCc1ncc(CNc2ccccc2C(=O)OCC(C)C)n1Cc1ccc(C(=O)O)cc1 [compound 164]
13.2 | CCCCc1nc(Cl)c(CNc2ccc(Cl)cc2C(=O)O)n1Cc1ccc(C(=O)O)cc1 [compound 49]
12 | CCCCCC(=O)OCOC(=O)c1ccccc1NCc1cnc(CCCC)n1Cc1ccc(C(=O)O)cc1 [compound 148]
10.5 | CCCCc1nc(Cl)c(CNc2cc([N+](=O)[O-])ccc2C(=O)O)n1Cc1ccc(C(=O)O)cc1 [compound 46]
10 | CCCCc1ncc(CNc2ccccc2C(=O)OCC(=O)OCC)n1Cc1ccc(C(=O)O)cc1 [compound 141]
8.8 | CCCCc1nc(Cl)c(CNc2ccccc2C(=O)O)n1Cc1ccc(C(=O)NS(=O)(=O)c2ccccc2C)cc1 [compound 66]
8.7 | CCCCc1ncc(CNc2ccccc2C(=O)OCC(=O)CC)n1Cc1ccc(C(=O)O)cc1 [compound 155]
8.4 | CCCCc1nc(Cl)c(Cn2c(C(=O)O)cc3ccccc32)n1Cc1ccc(C(=O)O)cc1 [compound 34]
7 | CCCc1ncc(CNc2ccccc2C(=O)O)n1Cc1ccc(C(=O)O)cc1 [compound 36]
5 | CCCCc1ncc(CNc2ccccc2C(=O)OCOC(=O)CCC)n1Cc1ccc(C(=O)O)cc1 [compound 149]
4.6 | CCCCc1nc(SC)c(CNc2ccccc2C(=O)O)n1Cc1ccc(C(=O)O)cc1 [compound 198]
1.5 | CCCCc1ncc(CNc2ccccc2C(=O)O)n1Cc1ccc(C(=O)NS(=O)(=O)c2ccccc2C)cc1 [compound 67]
0.8 | CCCCc1ncc(CNc2ccccc2C(=O)O)n1Cc1ccc(C(=O)NS(=O)(=O)c2ccccc2Cl)cc1 [compound 211]
